In assay [1] the test system is Wnt activity (Sp5-Luc reporter, SW480 colon carcinoma cells). As to the kind of experiment: Wnt activity screening assay, Sp5-Luc reporter gene in SW480 cells. The format is cell-based. To be noted: Homo sapiens; for inhibition at 10 µM: given for EC50 >10 μM, read-out: percent inhibition at 10 μM; for EC50: overnight incubation. From the text: The screening assay for Wnt activity is described as follows. Reporter cell lines can be generated by stably transducing cancer cell lines (e.g., colon cancer) or primary cells (e.g., IEC-6 intestinal cells) with a lentiviral construct that includes a Wnt-responsive promoter driving expression of the firefly luciferase gene.
SW480 colon carcinoma cells were transduced with a lentiviral vector expressing luciferase with a human Sp5 promoter consisting of a sequence of eight TCF/LEF binding sites. SW480 cells stably expressing the Sp5-Luc reporter gene and a hygromycin resistance gene were selected by treatment with 150 μg/mL of hygromycin for 7 days. These stably transduced SW480 cells were expanded in cell culture and used for all further screening activities. Each compound was dissolved in DMSO as a 10 mM stock and used to prepare compound source plates. Serial dilution (1:3, 10-point dose-response curves starting from 10 μM) and compound transfer was performed using the ECHO 550 (Labcyte, Sunnyvale, Calif.) into 384-well white solid bottom assay plates (Greiner Bio-One) with appropriate DMSO backfill for a final DMSO concentration of 0.1%. For Sp5-Luc reporter gene assays, the cells were plated at 4,000 cells/well in 384-well plates with medium containing 1% fetal bovine serum and incubated overnight at 37° C. and 5% CO2. Following incubation, 20 μl of BrightGlo luminescence reagent (Promega) was added to each well of the 384-well assay plates. The plates were placed on an orbital shaker for 2 min and then luminescence was quantified using the Envision (Perkin Elmer) plate reader. Readings were normalized to DMSO only treated cells, and normalized activities were utilized for EC50 calculations using the dose-response log (inhibitor) vs. response—variable slope (four parameters) nonlinear regression feature available in GraphPad Prism 5.0 (or Dotmatics). For EC50 of >10 μM, the percent inhibition at 10 μM is provided.
(In general: Reporter assays use an easily measured gene product as a stand-in for the process of interest.)

In a further assay the test system is SW480 colon cancer cells. In words: Cell viability assay (CellTiter-Blue). The format is cell-based. To be noted: Homo sapiens, 96 h, four days; for inhibition at 10 µM: given for EC50 >10 μM, read-out: percent inhibition at 10 μM. On the procedure: Representative compounds were screened using the following assay procedure to assess the effect on cell viability as described below.
Each compound was dissolved in DMSO as a 10 mM stock and used to prepare compound source plates. Serial dilution (1:3, 8-point dose-response curves from 10 μM to 0.0045 μM) and compound transfer was performed using the ECHO 550 (Labcyte, Sunnyvale, Calif.) into 96-well clear bottom, black-walled plates (Corning-Costar).
Approximately 2×10^3 SW480 colon cancer cells were seeded into each well and allowed to incubate in the presence or absence of compound for four days at 37° C./5% CO2. Eight replicates of DMSO-treated cells served as controls and cells treated with compound were performed in duplicate.
After incubation, 20 μL of CellTiter-Blue (Promega) was added to each well allowed to incubate for approximately 3 hours. This reagent was a buffered solution which contains resazurin, metabolically active cells were able to reduce rezarurin (blue) into resorufin (pink) which was highly fluorescent. This measured fluorescence was used as a readout for cell viability.
After incubation, the plates were read at Ex 560 nm Em 590 nm (Cytation 3, BioTek). Dose-response curves were generated and EC50 concentration values were calculated using non-linear regression curve fit in the GraphPad Prism (San Diego, Calif.) or Dotmatics' Studies Software (Bishops Stortford, UK). For EC50 of >10 μM, the percent inhibition at 10 μM is provided.
In general terms: Alamar Blue is a resazurin reagent that responds to reducing activity.

This note sets out measurements from US10285983B2, “3-(1H-pyrrolo[2,3-B]pyridin-2-yl)-1H-pyrazolo[3,4-B] pyridines and therapeutic uses thereof” (Samumed, LLC, priority 2015, dated 2019).

Bounds are passed on as bounds.

As a reminder, the inhibition is the percentage by which the read-out fell short of the control. As a reminder, the EC50 is the concentration needed to bring the measured effect to its halfway point. Higher therefore signals a less potent agent.

Consider `CCC(=O)Nc1cncc(-c2cnc3[nH]nc(-c4cc5c(-c6cccc(F)c6)ccnc5[nH]4)c3c2)c1` [Compound 1, N-(5-(3-(4-(3-Fluorophenyl)-1H-pyrrolo[2,3-b]pyridin-2-yl)-1H-pyrazolo [3,4-b]pyridin-5-yl)pyridin-3-yl)propionamide], for which, in assay [1], the inhibition at 10 µM was determined as 46.1% and the EC50 is more than 10 µM. Further, in the assay on SW480 colon cancer cells, the concentration giving a half-maximal response (EC50) is more than 10 µM and the inhibition at 10 µM was found to be 9.8%.

Turning to `Fc1cccc(-c2ccnc3[nH]c(-c4n[nH]c5ncc(-c6cccnc6)cc45)cc23)c1` [Compound 4, 3-(4-(3-Fluorophenyl)-1H-pyrrolo[2,3-b]pyridin-2-yl)-5-(pyridin-3-yl)-1H-pyrazolo[3,4-b]pyridine], in assay [1], the inhibition at 10 µM came to 7.6% and the EC50 was more than 10 µM. In the assay on SW480 colon cancer cells, the half-maximal effective concentration (EC50) is more than 10 µM and the inhibition at 10 µM was determined as 17.5%.

For `O=C(Nc1cncc(-c2cnc3[nH]nc(-c4cc5c(-c6cccc(F)c6)ccnc5[nH]4)c3c2)c1)c1ccccc1` [Compound 11, N-(5-(3-(4-(3-Fluorophenyl)-1H-pyrrolo[2,3-b]pyridin-2-yl)-1H-pyrazolo [3,4-b]pyridin-5-yl)pyridin-3-yl)benzamide], in assay [1], the inhibition at 10 µM turned out to be 10% and the EC50 is more than 10 µM. For the same molecule, the EC50 with SW480 colon cancer cells came out at 0.643 µM.

Turning to `Fc1cccc(-c2ccnc3[nH]c(-c4n[nH]c5ncc(-c6ccncc6)cc45)cc23)c1` [Compound 18, 3-(4-(3-Fluorophenyl)-1H-pyrrolo[2,3-b]pyridin-2-yl)-5-(pyridin-4-yl)-1H-pyrazolo[3,4-b]pyridine], in assay [1], the inhibition at 10 µM came to 11.7% and the 50% effective concentration (EC50) was more than 10 µM. Also, in the assay on SW480 colon cancer cells, the EC50 was more than 10 µM and the inhibition at 10 µM was determined as 23.2%.

For `O=C(Nc1cncc(-c2cnc3[nH]nc(-c4cc5c(-c6cccc(F)c6)ccnc5[nH]4)c3c2)c1)C1CC1` [Compound 20, N-(5-(3-(4-(3-Fluorophenyl)-1H-pyrrolo[2,3-b]pyridin-2-yl)-1H-pyrazolo [3,4-b]pyridin-5-yl)pyridin-3-yl)cyclopropanecarboxamide], in assay [1], the inhibition at 10 µM was determined as 57.3% and the EC50 was more than 10 µM. Besides, in the assay with SW480 colon cancer cells, the EC50 was more than 10 µM and the inhibition at 10 µM is 51.4%.

For the molecule `Fc1cccc(-c2ccnc3[nH]c(-c4n[nH]c5ncc(-c6ccccn6)cc45)cc23)c1` [Compound 28, 3-(4-(3-Fluorophenyl)-1H-pyrrolo[2,3-b]pyridin-2-yl)-5-(pyridin-2-yl)-1H-pyrazolo[3,4-b]pyridine], in assay [1], the inhibition at 10 µM was found to be 15% and the EC50 is more than 10 µM. In the assay on SW480 colon cancer cells, the EC50 is more than 10 µM and the inhibition at 10 µM amounted to 16.3%.

Consider `CC(C)CC(=O)Nc1cncc(-c2cnc3[nH]nc(-c4cc5c(-c6ccc(F)cc6)ccnc5[nH]4)c3c2)c1` [Compound 30, N-(5-(3-(4-(4-Fluorophenyl)-1H-pyrrolo[2,3-b]pyridin-2-yl)-1H-pyrazolo [3,4-b]pyridin-5-yl)pyridin-3-yl)-3-methylbutanamide], for which, in assay [1], the inhibition at 10 µM was found to be 11.9% and the EC50 is more than 10 µM. For the same molecule, in the assay with SW480 colon cancer cells, the concentration for a half-maximal effect (EC50) is more than 10 µM and the inhibition at 10 µM was found to be 18.5%.

As for `Fc1ccc(-c2ccnc3[nH]c(-c4n[nH]c5ncc(-c6cncc(CN7CCCCC7)c6)cc45)cc23)cc1` [Compound 43, 3-(4-(4-Fluorophenyl)-1H-pyrrolo[2,3-b]pyridin-2-yl)-5-(5-(piperidin-1-ylmethyl)pyridin-3-yl)-1H-pyrazolo[3,4-b]pyridine], in assay [1], the inhibition at 10 µM was 2.8% and the EC50 is more than 10 µM. Also, in the assay on SW480 colon cancer cells, the concentration for a half-maximal effect (EC50) is more than 10 µM and the inhibition at 10 µM was determined as 6.9%.

Take `O=C(Nc1cncc(-c2cnc3[nH]nc(-c4cc5c(-c6ccc(F)cc6)ccnc5[nH]4)c3c2)c1)C1CCCCC1` [Compound 51, N-(5-(3-(4-(4-Fluorophenyl)-1H-pyrrolo[2,3-b]pyridin-2-yl)-1H-pyrazolo [3,4-b]pyridin-5-yl)pyridin-3-yl)cyclohexanecarboxamide]: in assay [1], the inhibition at 10 µM turned out to be 14.2% and the concentration for a half-maximal effect (EC50) is more than 10 µM. In the assay on SW480 colon cancer cells, the concentration giving a half-maximal response (EC50) is more than 10 µM and the inhibition at 10 µM turned out to be 17.7%.

For `Fc1ccc(-c2ccnc3[nH]c(-c4n[nH]c5ncc(-c6cncc(CN7CCC(F)(F)C7)c6)cc45)cc23)cc1` [Compound 54, 5-(5-((3,3-Difluoropyrrolidin-1-yl)methyl)pyridin-3-yl)-3-(4-(4-fluorophenyl)-1H-pyrrolo[2,3-b]pyridin-2-yl)-1H-pyrazolo[3,4-b]pyridine], in assay [1], the inhibition at 10 µM came to 8.7% and the half-maximal effective concentration (EC50) was more than 10 µM. In the assay with SW480 colon cancer cells, the EC50 is more than 10 µM and the inhibition at 10 µM was 6.9%.

Regarding `Fc1ccc(-c2ccnc3[nH]c(-c4n[nH]c5ncc(-c6cncnc6)cc45)cc23)cc1` [Compound 55, 3-(4-(4-Fluorophenyl)-1H-pyrrolo[2,3-b]pyridin-2-yl)-5-(pyrimidin-5-yl)-1H-pyrazolo[3,4-b]pyridine], in assay [1], the inhibition at 10 µM worked out at 13.6% and the EC50 is more than 10 µM. Besides, in the assay on SW480 colon cancer cells, the EC50 was more than 10 µM and the inhibition at 10 µM amounted to 3.5%.

Take `CC(C)C(=O)Nc1cncc(-c2cnc3[nH]nc(-c4cc5c(-c6ccccc6F)ccnc5[nH]4)c3c2)c1` [Compound 65, N-(5-(3-(4-(2-Fluorophenyl)-1H-pyrrolo[2,3-b]pyridin-2-yl)-1H-pyrazolo [3,4-b]pyridin-5-yl)pyridin-3-yl)isobutyramide]: the figures for the inhibition at 10 µM (in assay [1]; with SW480 colon cancer cells) were 30.8% and 32.1%, respectively. The EC50 (in assay [1]; with SW480 colon cancer cells) was more than 10 µM each time.

As to `CC(C)(C)CC(=O)Nc1cncc(-c2cnc3[nH]nc(-c4cc5c(-c6ccccc6F)ccnc5[nH]4)c3c2)c1` [Compound 72, N-(5-(3-(4-(2-Fluorophenyl)-1H-pyrrolo[2,3-b]pyridin-2-yl)-1H-pyrazolo [3,4-b]pyridin-5-yl)pyridin-3-yl)-3,3-dimethylbutanamide], in assay [1], the inhibition at 10 µM was found to be 16% and the EC50 was more than 10 µM. For the same molecule, in the assay on SW480 colon cancer cells, the half-maximal effective concentration (EC50) is more than 10 µM and the inhibition at 10 µM was 14.7%.

Take `O=C(Nc1cncc(-c2cnc3[nH]nc(-c4cc5c(-c6ccccc6F)ccnc5[nH]4)c3c2)c1)C1CCCC1` [Compound 78, N-(5-(3-(4-(2-Fluorophenyl)-1H-pyrrolo[2,3-b]pyridin-2-yl)-1H-pyrazolo [3,4-b]pyridin-5-yl)pyridin-3-yl)cyclopentanecarboxamide]: in assay [1], the inhibition at 10 µM was 17% and the concentration for a half-maximal effect (EC50) is more than 10 µM. For the same molecule, in the assay on SW480 colon cancer cells, the concentration giving a half-maximal response (EC50) was more than 10 µM and the inhibition at 10 µM turned out to be 11.3%.

`c1cncc(-c2cnc3[nH]nc(-c4cc5c(-c6cccnc6)ccnc5[nH]4)c3c2)c1` [Compound 88, 5-(Pyridin-3-yl)-3-(4-(pyridin-3-yl)-1H-pyrrolo[2,3-b]pyridin-2-yl)-1H-pyrazolo[3,4-b]pyridine]: the inhibition at 10 µM in assay [1] was found to be 17%; with SW480 colon cancer cells it was 10.8%. For the same molecule, the concentration for a half-maximal effect (EC50) (in assay [1]; in the assay with SW480 colon cancer cells) was more than 10 µM in each case.

Consider `CC(C)C(=O)Nc1cncc(-c2cnc3[nH]nc(-c4cc5c(-c6cccnc6)ccnc5[nH]4)c3c2)c1` [Compound 93, N-(5-(3-(4-(Pyridin-3-yl)-1H-pyrrolo[2,3-b]pyridin-2-yl)-1H-pyrazolo[3,4-b]pyridin-5-yl)pyridin-3-yl)isobutyramide], for which the inhibition at 10 µM in assay [1] is 15.4%; with SW480 colon cancer cells, 10.1%. Besides, the concentration giving a half-maximal response (EC50) (in assay [1]; in the assay with SW480 colon cancer cells) was more than 10 µM in each case.
